Data published in publication PMC5642494 (Oncotarget, 2017).
Where two headings read alike, the source gives them in different places.

System: H3K9me3
Test: Hypermethylation of histone H3 at lysine 9 (H3K9me3), EFM-19
Assay type: cell-based, human
Settings: 2 DT, n = 1, read-out: EC50 H3K9me3 levels
Procedure: Relative IC50/EC50 values were determined by curve fitting to a four parameter logistic equation: Y = bottom + ((top-bottom)/ (1+exp(HillSlope*(X – LnIC50)), where X is the natural log of dose/concentration, Y is response, decreasing as X increases, top and bottom are plateaus in the same units as Y, lnIC50 is the natural log of potency, in the same log units as X, and HillSlope measures the steepness of the curve. Data were plotted using GraphPad Prism.
BioResearch) where indicated; the dates of acquisition and in an Acumen Explorer Ex3 (TTP Labtech), raw data testing are listed in parentheses: ZR-75-1; T-47D; MDA- were analyzed with Cellista software and then further MB-468; HCC70; BT-549; BT-20; MDA-MB-231; MDA- normalized in Excel against the values obtained for cells MB-175-VII, HCC-1937; MDA-MB-415. treated with 2 µM BEZ235, or vehicle (0.2% v/v DMSO); data were graphed using GraphPad Prism®. Images were SA-β-galactosidase immunocytochemical labeling taken by fluorescent microscopy using a Leica DMiL. […]
SA-β-gal Cell samples were lysed after treatment with expression was determined using the Senescence Cells 100 µL lysis buffer and transferred to a 96-well plate. […]
(BSA) (Invitrogen #15260-037) for 1 hour at 25°C. EdU Samples were analyzed by LC─MS/MS under the detection was performed using the Click-iT High Content conditions described below. […]

SMILES: CCN1CCN(Cc2ccc(Nc3ncc(F)c(-c4cc(F)c5nc(C)n(C(C)C)c5c4)n3)nc2)CC1 [abemaciclib, Abemaciclib]
- EC50 (EFM-19): 23 nM
- EC50 (Homo sapiens, EFM-19, EFM-19): 23.2 nM
